Source: patent publication US20040253266A1, “Biological compositions and methods for treatment of esophageal cancer” (priority 2003, published 2004)

Experiments:
esophageal cancer [1] = assay: Wistar rat model of human esophageal cancer (MBNA-induced), tumor growth; format: in vivo, Wistar rats; conditions: 31st day, after 30 days treatment; AY/NY 1.5 ml per day oral, VDS 3.0 mg/kg i.v. once a week
Method: (§1) The oral composition comprising 10^8 cells per ml of activated and conditioned yeast cells of the strain Saccharomyces cerevisiae Hansen strain AS2.375 was prepared by the methods described in Section 5.1 and subsections therein.
The four experimental groups were triplicated (i.e., using a total of 120 rats in the experimental groups).

esophageal cancer [2] = assay: Wistar rat model of esophageal cancer, survival over 6 months; format: in vivo, Wistar rats; conditions: for Number of live animals remaining in the groups after 30 days of treatment: 30 rats per group
Method: The following example illustrates the benefit of a biological composition of the invention in a Wistar rat model of original position engrafted human esophageal cancer. The survival time of rats after tumor injection and treatment was studied.
as §1
The animals were prepared in a similar manner as described in Section 6.1.
The rats that were fed with MBNA for 30 days were divided into 4 experimental groups of ten rats per group and one control group. The four experimental groups were triplicated (i.e., using a total of 120 rats in the experimental groups). In group 2AY, the rats received 1.5 ml of the biological composition in two doses per day. In group 2NY, the rats received 1.5 ml of the untreated yeast cells in two doses per day. […] In group 2CK1, the rats received 1.5 ml of physiological saline in two doses per day.
The rats received the biological compositions, untreated yeast cells, VDS or saline on the same day as the tumor cells were transplanted. The rats in group 2CK2 also started receiving saline on the same day as the other four groups. […] The rats were observed over 6 months from the day of tumor inoculation and survival was recorded. The weight of the rats, the weight of the esophagus, and the weight of the tumor were determined by standard techniques.

[3] = test system: esophageal tumor SGA-73 cells; assay: TA1 mouse model of human esophageal cancer (SGA-73 cells), survival over 6 months; format: in vivo, TA1 mice; conditions: for Number of live animals remaining in the groups after 30 days of treatment: 30 mice per group
Method: The survival time of mice after tumor injection and treatment was studied.
as §1
The animals were prepared in a similar manner as described in Section 8.1.
The mice injected with tumor cells were kept for 3 days and then divided into 4 experimental groups of ten mice per group and one control group. The four experimental groups were triplicated (i.e., using a total of 120 mice in the experimental groups). In group 2AY, the mice received 0.5 ml of the biological composition once per day. In group 2NY, the mice received 0.5 ml of the untreated yeast cells once per day. In group 2CTX, the mice were injected subcutaneously with 45 mg of cyclophosphamide (CTX) per kg body weight per day. In group 2CK1, the mice received 0.5 ml of physiological saline once per day.
The mice received the biological compositions, untreated yeast cells, CTX or saline on the same day as the tumor cells were transplanted. The mice in group 2CK2 also started receiving saline on the same day as the other four groups. The biological compositions, untreated yeast cells and saline were administered orally by a feeding tube and the CTX by subcutaneous injection for 30 consecutive days. The mice were observed over 6 months from the day of tumor inoculation and survival was recorded. The weight of the mice and the weight of the tumor were determined by standard techniques.

[4] = test system: esophageal tumor SGA-73 cells; assay: TA1 mouse model of human esophageal cancer (SGA-73 cells s.c.), tumor growth; format: in vivo, TA1 mice; conditions: 31st day, after 30 days treatment; AY/NY 0.3 ml per day oral, CTX 30 mg/kg per day s.c.
Method: as §1
The mice injected with tumor cells were kept for 3 days and then divided into 4 experimental groups of ten mice per group and one control group. The four experimental groups were triplicated (i.e., using a total of 120 mice in the experimental groups).
The mice received the biological compositions, untreated yeast cells, CTX or saline on the same day as the tumor cells were transplanted. The mice in group CK2 also started receiving saline on the same day as the other four groups. The biological compositions, untreated yeast cells and saline were administered orally by a feeding tube and the CTX by subcutaneous injection for 30 consecutive days.

[5] = 0 month after cessation of treatment
[6] = 1 month after cessation of treatment
[7] = 2 months after cessation of treatment
[8] = 3 months after cessation of treatment
[9] = 4 months after cessation of treatment
[10] = 5 months after cessation of treatment
[11] = 6 months after cessation of treatment
[12] = rats that survived the 6 month observation
[13] = mice that survived the 6 month observation

In the case of `CC[C@]1(O)C[C@@H]2CN(CCc3c([nH]c4ccccc34)[C@@](C(=O)OC)(c3cc4c(cc3OC)N(C)[C@H]3[C@@](O)(C(N)=O)[C@H](O)[C@]5(CC)C=CCN6CC[C@]43[C@@H]65)C2)C1` [VDS, vindesine], the “mean weight of rats and standard deviation” value (esophageal cancer [1]) is reported as 173 ± 15 g, the “mean weight of tumor nodules and standard deviation” value (esophageal cancer [1]) is reported as 281 ± 31 mg and the “Number of live animals remaining in the groups after 30 days of treatment” value (shortened to “Number of live animals remaining”) (esophageal cancer [2]; [5]) is reported as 30. The “Number of live animals remaining” value (esophageal cancer [2]; [6]) was 30, the “survival time of rats” value (esophageal cancer [2]; 2AY/2NY 1.5 ml per day oral, 2VDS 3.0 mg/kg per week for four weeks) was “all died after five months” and the “Number of live animals remaining” value (esophageal cancer [2]; [7]) was 30. The “Number of live animals remaining” value (esophageal cancer [2]; [8]) was 30, the “Number of live animals remaining” value (esophageal cancer [2]; [9]) was 21 and the “Number of live animals remaining” value (esophageal cancer [2]; [10]) was 3. For the same molecule, the “Number of live animals remaining” value (esophageal cancer [2]; [11]) was 0, the “mean weight of esophagus and standard deviation” value (esophageal cancer [2]; [12]) was “all animals dead” and the “mean weight of rats and standard deviation” value (esophageal cancer [2]; [12]) was “all animals dead”. The “mean weight of tumor nodules and standard deviation” value (esophageal cancer [2]; [12]) was “all animals dead”.
For `O=P1(N(CCCl)CCCl)NCCCO1` (stereo not shown) [CTX, cyclophosphamide], the “Number of live animals remaining” value [3, 5] was 30, the “Number of live animals remaining” value [3, 6] was 30 and the “survival time of mice” value ([3]; 2AY/2NY 0.5 ml per day oral, 2CTX 45 mg/kg per day s.c.) was “all died after four months”. The “Number of live animals remaining” value [3, 7] was 28, the “Number of live animals remaining” value [3, 8] was 22 and the “Number of live animals remaining” value [3, 9] was 18. The “Number of live animals remaining” value [3, 10] was 0, the “Number of live animals remaining” value [3, 11] was 0 and the “mean weight of mice and standard deviation” value [3, 13] was “all animals dead”. For the same molecule, the “mean weight of tumor nodules and standard deviation” value [3, 13] was “all animals dead”, the “mean weight of mice and standard deviation” value [4] was 18.2 ± 2.8 g and the “mean weight of tumor nodules and standard deviation” value [4] was 384 ± 31 mg.
